According to US10364256B2 (GlaxoSmithKline Intellectual Property Development Limited, priority 2015, dated 2019):
Like-named read-outs stand apart in the source and are kept apart here.

What was measured:
[1] = target: T1, full length Keap1 protein / full length NRF2 protein (Homo sapiens, UniProt Q14145); test: NRF2-Keap1 TR-FRET Low Protein Assay; type: binding; settings: 1.25 nM Keap1 FlagHis and 2.5 nM biotin-NRF2 added
T1 construct: full length NRF2 protein and full length Keap1 protein (Keap1 exists a dimer) are used; His
T1 sequence (Q14145 whole entry): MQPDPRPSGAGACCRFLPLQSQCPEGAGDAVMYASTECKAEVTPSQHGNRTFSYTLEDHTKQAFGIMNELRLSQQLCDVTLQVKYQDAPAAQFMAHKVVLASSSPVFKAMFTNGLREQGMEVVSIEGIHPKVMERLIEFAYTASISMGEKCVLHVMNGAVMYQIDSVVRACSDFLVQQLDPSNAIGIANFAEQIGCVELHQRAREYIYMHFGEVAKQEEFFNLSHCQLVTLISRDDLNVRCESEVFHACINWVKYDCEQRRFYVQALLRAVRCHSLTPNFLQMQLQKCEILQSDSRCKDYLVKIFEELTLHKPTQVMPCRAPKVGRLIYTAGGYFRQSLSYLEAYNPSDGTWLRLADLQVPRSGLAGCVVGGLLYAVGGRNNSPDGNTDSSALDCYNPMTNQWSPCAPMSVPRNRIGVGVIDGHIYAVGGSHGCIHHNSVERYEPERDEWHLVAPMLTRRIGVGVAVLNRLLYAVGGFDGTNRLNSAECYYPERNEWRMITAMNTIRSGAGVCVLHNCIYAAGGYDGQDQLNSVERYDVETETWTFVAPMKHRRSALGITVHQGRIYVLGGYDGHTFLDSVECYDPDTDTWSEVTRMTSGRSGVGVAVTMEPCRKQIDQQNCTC
From the text: NRF2-Keap1 TR-FRET Low Protein Assay In the NRF2-Keap1 TR-FRET (time-resolved fluorescence resonance energy transfer) low protein assay, full length NRF2 protein and full length Keap1 protein (Keap1 exists a dimer) are used. The assay detects a compound's ability to displace the binding of Keap1 […] with biotinylated Avi-NRF2 protein. Biotin-NRF2 binds to streptavidin-europium (a component of the detection mix) and Keap1 […] is recognized by anti-Flag APC (allophycocyanin) antibody (also a component of the detection mix). If binding occurs between the two proteins, there will be an energy transfer from the Eu+3 (donor) at 615 nm to the APC (acceptor) at 665 nm. A potential NRF2 inhibitor will cause a reduction in the TR-FRET signal by interfering with the binding of Keap1 to NRF2. Ten nanoliters of 100× compound dose response curves (serial 3-fold dilutions) in DMSO are stamped using an Echo liquid handling system (Labcyte) into 384-well, low volume, black assay plates (Greiner, #784076), with DMSO in columns 6 and 18. An additional 90 nl DMSO is added to each well, to bring the total volume to 100 nl per well. The top concentration of compound is located in columns 1 and 13, with the serial dilutions going across the row. All reagents are diluted in assay buffer (50 mM Tris, pH 8.0, 5 mM MgCl2, 100 mM NaCl, 0.005% BSA, 1 mM DTT, and 2 mM CHAPS. The BSA, DTT, and CHAPS are added to the assay buffer on the day of assay. […] Wells in column 18 receive 5 ul of assay buffer instead. Plates are centrifuged at 500 rpm for 1 minute, covered with a plate lid, and incubated at 37° C. for 2.25 hours. Plates are then removed from the incubator and allowed to cool to RT for 15 minutes. Five microliters of 2.5 nM biotin-NRF2 protein is then added to all wells of the plates and the plates are spun at 500 rpm for 1 minute, followed by incubating at 4° C. for 1.25 hours. The plates are then allowed to warm to RT for 15 minutes, followed by the addition of 10 ul of detection mix (1 nM Streptavidin Eu+W1024 and 5 ug/ml mouse anti-DYKDDDDK IgG conjugated to SureLight APC antibody; both from Columbia Biosciences) to all wells. Plates are spun at 500 rpm for 1 minute, incubated for 1 hour at RT, and read on an Envision plate reader using a 320 nm excitation filter and 615 nm and 665 nm emission filters. […] Data analysis is handled using the software package Abase XE (Surrey, United Kingdom). […] For calculation of pIC50s, Abase XE uses a four parameter equation. pIC50 is the negative log of the IC50.

[2] = target: T2, Keap1 Kelch domain (321-609) / TAMRA-labeled 16mer NRF2 peptide (ETGE motif) (Homo sapiens, UniProt Q14145); test: NRF2-Keap1 FP Assay (Keap1 Kelch fluorescence polarization); type: binding; settings: 20 nM Keap1 (321-609), 8 nM Tamra labeled peptide
T2 construct: the Kelch domain (321-609) of Keap1 is used
T2 sequence (Q14145 321-609): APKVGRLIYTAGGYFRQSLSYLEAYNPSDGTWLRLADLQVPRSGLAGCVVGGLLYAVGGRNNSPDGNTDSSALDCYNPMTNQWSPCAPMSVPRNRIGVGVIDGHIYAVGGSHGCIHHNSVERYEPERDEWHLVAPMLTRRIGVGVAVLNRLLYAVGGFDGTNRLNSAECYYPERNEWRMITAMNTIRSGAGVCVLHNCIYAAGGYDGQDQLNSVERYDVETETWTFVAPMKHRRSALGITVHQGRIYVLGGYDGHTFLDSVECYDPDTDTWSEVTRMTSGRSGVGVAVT
From the text: One model for the NRF2-Keap1 interaction is through two binding sites in the Neh2 domain on NRF2. The two sites are referred to as the DLG binding motif (latch domain, uM affinity) and the ETGE binding motif (hinge domain, nM affinity). The Keap1 protein consists of an N-terminal region (NTR), a broad complex, tramtrack, and brick a′ brac domain (BTB), an intervening region (IVR), a double glycine repeat domain (DGR or Kelch), and a C-terminal region. The DLG and ETGE motifs of NRF2's Neh2 domain bind to the Kelch domain of Keap1 at different affinities. In the Keap1 Kelch fluorescence polarization (FP) assay, a TAMRA-labeled 16mer peptide (AFFAQLQLDEETGEFL) containing the ETGE motif of NRF2 and the Kelch domain (321-609) of Keap1 is used. The assay determines if a compound interferes with the binding between Keap1 […] and the TAMRA-labeled peptide. Binding of TAMRA-labeled NRF2 peptide to Keap1 (321-609) results in a high FP signal. If a compound interferes with the binding between the peptide and the protein, it will cause the assay signal to decrease. Thus, assay signal is inversely proportional to binding inhibition.
100 nl of 100× compound dose response curves (serial 3-fold dilutions) in DMSO are stamped using an Echo liquid handling system (Labcyte) into 384-well low volume black assay plates (Greiner, #784076), with DMSO in columns 6 and 18. The top concentration of compound is located in columns 1 and 13. Keap1 (321-609) is diluted to 40 nM (2×) in 1× assay buffer (50 mM Tris, pH 8.0, 100 mM NaCl, 5 mM MgCl2, 1 mM DTT, 2 mM CHAPS, and 0.005% BSA) and 5 ul is added using a Multidrop Combi (Thermo Electron Corporation) equipped with a metal tip dispenser to all wells of the compound plate, except column 18. Column 18 receives only 5 ul of assay buffer. Immediately, 5 uL of 16 nM (2×) of Tamra labeled peptide (AFFAQLQLDEETGEFL, 21st Century Biochemicals) is added to all wells of the plate. The plates are spun at 500 rpm for 1 min, incubated for 1 hr at room temperature, and read on an Analyst GT (Molecular Devices) equipped with excitation (530/25 nm) and emission (580/10 nm) filters designed for Tamra probes. A 561 nm dichroic mirror is also used in the Analyst. The final assay concentrations of Keap1 (321-609) and Tamra labeled peptide are 20 nM and 8 nM, respectively. Fluorescence measurements, represented as mP, are used in the transformation of the data. Compound activity is calculated based on percent inhibition, normalized against controls in the assay (Control 1 contains the Tamra peptide and Keap1 (321-609) together (0% response) and control 2 contains the Tamra peptide alone (100% response)). Data analysis is handled using the software package Abase XE (Surrey, United Kingdom. The % inhibition values are calculated by the equation: 100−(100*((compound response−average control 2)/(average control 1−average control2))). For calculation of pIC50s, Abase XE uses a four parameter equation. pIC50 is the negative log of the IC50.

[3] = test system: NQO1 specific enzyme activity in BEAS-2B cells (marker for NRF2 activation); test: BEAS-2B NQO1 MTT Assay; type: cell-based; settings: compound incubated 48 hours, read-out: EC50 (NQO1 specific enzyme activity induction)
From the text: BEAS-2B NQO1 MTT Assay NAD(P)H:quinone oxidoreductase 1 (NQO1), also called DT diaphorase, is a homodimeric FAD-containing enzyme that catalyzes obligatory NAD(P)H-dependent two-electron reductions of quinones and protects cells against the toxic and neoplastic effects of free radicals and reactive oxygen species arising from one-electron reductions. The transcription of NQO1 is finely regulated by NRF2, and thus NQO1 activity is a good marker for NRF2 activation. On day one, frozen BEAS-2B cells (ATCC) are thawed in a water bath, counted, and re-suspended at a concentration of 250,000 cells/mL. Fifty microliters of cells are plated in 384 well black clear-bottomed plates. Plates are incubated at 37° C., 5% CO2 overnight. On day two, plates are centrifuged and 50 nL of compound or controls are added to the cells. Plates are then incubated at 37° C., 5% CO2 for 48 hours. On day four, medium is aspirated from the plate and crude cell lysates are made by adding 13 uL of 1× Cell Signaling Technologies lysis buffer with 1 Complete, Mini, EDTA-free Protease Inhibitor Tablet (Roche) for each 10 mL of lysis buffer. After lysis plates are incubated for 20 minutes at room temperature. Two microliters of lysate are removed for use in Cell Titer Glo assay (Promega) and MTT cocktail is prepared (Prochaska et. al. 1998) for measurement of NQO1 activity. Fifty microliters of MTT cocktail is added to each well, plate is centrifuged, and analyzed on an Envision plate reader (Perkin Elmer) using Absorbance 570 nm label for 30 minutes. Product formation is measured kinetically and the pEC50 of NQO1 specific activity induction is calculated by plotting the change in absorbance (Delta OD/min) versus the log of compound concentration followed by 3-parameter fitting. pEC50 is the negative log of the EC50.

Row | Compound | IC50 [1] | IC50 [2] | EC50 ([3]; Homo sapiens) | EC50 [3]
1 | CC(Cc1cccc(-c2cccc(-n3ncc(C(=O)O)c3[C@@H]3C[C@H]3c3cn(C)nn3)c2)c1)C1CCCCC1 (single isomer, unassigned) [Example 116e, 1-(3′-((R) or (S)-2-Cyclohexylpropyl)-[1,1′-biphenyl]-3-yl)-5-((1R,2R)-2-(1-methyl-1H-1,2,3-triazol-4-yl)cyclopropyl)-1H-pyrazole-4-carboxylic Acid] | 10 to 100 nM | 10 to 100 nM | 1 to 10 nM | –
2 | CCC(Oc1cccc(-c2cccc(-n3ncc(C(=O)O)c3[C@H]3C[C@@H]3c3cn(C)nn3)c2)c1)C1CCCCC1 (mixture of isomers) [Example 242] | 10 to 100 nM | 10 to 100 nM | 10 to 100 nM | –
3 | CCCC1CCCCN1S(=O)(=O)c1cccc(-c2cccc(-n3ncc(C(=O)O)c3[C@@H]3C[C@H]3c3cn(C)nn3)c2)c1 (mixture of isomers) [Example 142, 5-((1,2-trans)-2-(1-Methyl-1H-1,2,3-triazol-4-yl)cyclopropyl)-1-(3′-((2-propylpiperidin-1-yl)sulfonyl)-[1,1′-biphenyl]-3-yl)-1H-pyrazole-4-carboxylic Acid] | 10 to 100 nM | 10 to 100 nM | 100 to 1000 nM | –
4 | C[C@H](Oc1cccc(-c2cccc(-n3ncc(C(=O)O)c3[C@@H]3C[C@H]3CCCO)c2)c1)C1CCCCC1 (racemic) [Example 102, 1-(3′-((S)-1-Cyclohexylethoxy)-[1,1′-biphenyl]-3-yl)-5-(trans-2-(3-hydroxypropyl)cyclopropyl)-1H-pyrazole-4-carboxylic Acid] | 1000 to 10000 nM | 1000 to 10000 nM | 100 to 1000 nM | –
5 | C[C@H](Oc1cccc(-c2cccc(-n3ncc(C(=O)O)c3[C@@H]3C[C@H]3c3cn(CCN(C)C)nn3)c2)c1)C1CCCCC1 (racemic) [Example 88, 1-(3′-((S)-1-Cyclohexylethoxy)-[1,1′-biphenyl]-3-yl)-5-(trans-2-(1-(2-(dimethylamino)ethyl)-1H-1,2,3-triazol-4-yl)cyclopropyl)-1H-pyrazole-4-carboxylic acid] | 10 to 100 nM | 10 to 100 nM | 10 to 100 nM | –
6 | CC[C@H]1c2ccccc2OCCN1Cc1cccc(-c2cccc(-n3ncc(C(=O)O)c3[C@@H]3C[C@H]3c3cn(C)nn3)c2)c1 (single isomer, unassigned; isomer 1) [Example 122] | < 10 nM | 10 to 100 nM | – | 10 to 100 nM
7 | C[C@H](Oc1cccc(-c2cccc(-n3ncc(C(=O)O)c3[C@@H]3C[C@H]3c3cn(C4CCOCC4)nn3)c2)c1)C1CCCCC1 [Example 95, 1-(3′-((S)-1-Cyclohexylethoxy)-[1,1′-biphenyl]-3-yl)-5-((1R,2R)-2-(1-(tetrahydro-2H-pyran-4-yl)-1H-1,2,3-triazol-4-yl)cyclopropyl)-1H-pyrazole-4-carboxylic Acid] | < 10 nM | 10 to 100 nM | 1 to 10 nM | –

Second part, led by results:

Row | IC50 [1] | IC50 [2] | Compound | EC50 ([3]; Homo sapiens) | EC50 [3]
8 | 100 to 1000 nM | 100 to 1000 nM | Cn1cc([C@@H]2C[C@H]2c2c(C(=O)O)cnn2-c2cccc(-c3cccc(CN4Cc5ccccc5CC(C)(C)C4)c3)c2)nn1 (racemic) [Example 126, 1-(3′-((4,4-dimethyl-4,5-dihydro-1H-benzo[c]azepin-2(3H)-yl)methyl)-[1,1′-biphenyl]-3-yl)-5-((1,2-trans)-2-(1-methyl-1H-1,2,3-triazol-4-yl)cyclopropyl)-1H-pyrazole-4-carboxylic Acid] | 100 to 1000 nM | –
9 | < 10 nM | 10 to 100 nM | CCC1COc2ccccc2CN1Cc1cccc(-c2cccc(-n3ncc(C(=O)O)c3[C@H]3C[C@@H]3c3cn(C)nn3)c2)c1 (mixture of isomers) [Example 118, 1-(3′-((3-Ethyl-2,3-dihydrobenzo[f][1,4]oxazepin-4(5H)-yl)methyl)-[1,1′-biphenyl]-3-yl)-5-((1,2-trans)-2-(1-methyl-1H-1,2,3-triazol-4-yl)cyclopropyl)-1H-pyrazole-4-carboxylic Acid] | 100 to 1000 nM | –
10 | < 10 nM | 10 to 100 nM | CC[C@H]1COc2ccccc2CN1Cc1cccc(-c2cccc(-n3ncc(C(=O)O)c3[C@@H]3C[C@H]3c3cn(C)nn3)c2)c1 [Example 119, 1-(3′-(((S)-3-Ethyl-2,3-dihydrobenzo[f][1,4]oxazepin-4(5H)-yl)methyl)-[1,1′-biphenyl]-3-yl)-5-((1R,2R)-2-(1-methyl-1H-1,2,3-triazol-4-yl)cyclopropyl)-1H-pyrazole-4-carboxylic Acid] | 100 to 1000 nM | –
